For test [1], the system named is 5AG4-FAM (DNA, G4) AAAAAGGGTGGGTGGGTGGGTTTTT
Briefly: FAM fluorescence quenching on hemin addition. As to conditions: K+ (varied); 10 mM Tris-HCl pH 8.4; K+-folded parallel G4.

For test [2], the system named is 5AG4 (DNA, G4) AAAAAGGGTGGGTGGGTGGGTTTTT
The test can be described thus: SGI fluorescence quenching on hemin addition. As to conditions: K+ (varied); 10 mM Tris-HCl pH 8.4, 0.2% Tween 20, 0.3x SGI; K+-folded parallel G4.

Test [3] deals with OTAapt31 (DNA, aptamer) GATCGGGTGTGGGTGGCGTAAAGGGAGCATC
The test can be described thus: SGI fluorescence quenching. As to conditions: 6.25 mM Ca2+; 10 mM Tris-HCl pH 8.4, 0.3x SGI, 20 nM aptamer; tested at 62.5 nM.

For test [4] the test system is unchanged. The test can be described thus: SGI fluorescence enhancement. As to conditions: 6.25 mM Ca2+; 10 mM Tris-HCl pH 8.4, 0.3x SGI, 20 nM aptamer; no OTA; terminal duplex stem.
Test [5] has the same test system. The test can be described thus: SGI fluorescence quenching on CV addition. As to conditions: 6.25 mM Ca2+; 10 mM Tris-HCl pH 8.4, 0.3x SGI; OTA-folded antiparallel G4.
Test [6] relates to OTAapt31-FAM (DNA, aptamer) GATCGGGTGTGGGTGGCGTAAAGGGAGCATC
Briefly: FAM fluorescence quenching on CV addition. As to conditions: 6.25 mM Ca2+; 10 mM Tris-HCl pH 8.4; OTA-folded antiparallel G4.

In test [7] the test system is OTAapt36 (DNA, aptamer) GATCGGGTGTGGGTGGCGTAAAGGGAGCATCGGACA
The test can be described thus: fluorescence quenching titration. As to conditions: 6.25 mM Ca2+; 10 mM Tris-HCl pH 8.4, 0.2% Tween 20, 0.3x SGI, 20 nM aptamer, room temperature; apparent.

The test system of test [8] is OTAapt31 (DNA, aptamer) GATCGGGTGTGGGTGGCGTAAAGGGAGCATC
The test can be described thus: fluorescence quenching titration. As to conditions: 6.25 mM Ca2+; 10 mM Tris-HCl pH 8.4, 0.2% Tween 20, 0.3x SGI, 20 nM aptamer, room temperature; apparent.

Test [9] concerns OTAapt31-FAM (DNA, aptamer) GATCGGGTGTGGGTGGCGTAAAGGGAGCATC
Briefly: FAM fluorescence quenching titration. As to conditions: 6.25 mM Ca2+; 10 mM Tris-HCl pH 8.4, room temperature; apparent.

Test [10] has as its system G31C (DNA, aptamer) GGATCGGGTGTGGGTGGCGTAAAGGGAGCATCC
The test can be described thus: fluorescence quenching titration. As to conditions: 6.25 mM Ca2+; 10 mM Tris-HCl pH 8.4, 0.2% Tween 20, 0.3x SGI, 20 nM aptamer, room temperature; apparent.

In the case of `C=CC1=C(C)C2=Cc3c(C=C)c(C)c4[n]3[Fe]([Cl])[n]3c(c(C)c(CCC(=O)O)c3=CC3=NC(=C4)C(C)=C3CCC(=O)O)=CC1=N2`, the binding result in [1] and in test [2] was “yes” throughout.

On to `CCCC[C@@H](C)[C@@H](OC(=O)C[C@@H](CC(=O)O)C(=O)O)[C@H](C[C@@H](C)C[C@H](O)CCCC[C@@H](O)C[C@H](O)[C@H](C)N)OC(=O)C[C@@H](CC(=O)O)C(=O)O`, for which the binding result in test [3] was “no”.

On to `CCCN(CCCN(C)C)c1cc(C=C2Sc3ccccc3N2C)c2ccccc2[n+]1-c1ccccc1`, for which the binding entry in test [4] was “yes”.

As for `CN(C)c1ccc(C(=C2C=CC(=[N+](C)C)C=C2)c2ccc(N(C)C)cc2)cc1`, the binding result in test [5] and in [6] was “yes” each time.

As to `C[C@@H]1Cc2c(Cl)cc(C(=O)N[C@@H](Cc3ccccc3)C(=O)O)c(O)c2C(=O)O1`, the IC50 (in general, the concentration needed to halve the response being measured) is listed as 55.7 nM in test [7], 20.6 nM in test [8], 19.8 nM in test [9] and 17.8 nM in [10].

For the compound `C[C@@H]1Cc2ccc(C(=O)N[C@@H](Cc3ccccc3)C(=O)O)c(O)c2C(=O)O1`, the binding result in [3] is given as “no”.

On to `C[C@H]1CCCC(=O)CCC/C=C/c2cc(O)cc(O)c2C(=O)O1`, for which the binding entry in [3] is “no”.

With `O=C1C=C2C(=CCOC2O)O1` (stereo not shown), the binding entry in test [3] is given as “no”.

These data come from PMC9221108 (2022).
